Reference: patent publication EP0075047A1, “1-(Substituted phenylthiocarbamyl) 3,3-disubstituted formamidines and their production and pharmaceutical compositions containing them” (STAUFFER CHEMICAL COMPANY, priority 1981, dated 1983)
Where a name gives a salt, the structure may show the parent alone.

How the values were obtained:
adjuvant arthritis = test: Adjuvant arthritis inhibition (hind-foot volume, primary and secondary lesions); format: in vivo, Wistar male rats (Taiwan strain); conditions: five daily doses, rat; for Percent Reduction in Edema of the Primary Lesion: injected right hind paw measured four hours after fifth dose; for Percent Reduction in Edema of the Secondary Lesion: uninjected foot measured fourteen days after adjuvant inoculation
Excerpt: (§1) The first test is for adjuvant arthritis inhibition and the second, an anti-edema test, involves the diminution of experimental edema induced in the hind paw of a rat by the injection of carrageenin.
This test was run according to the test procedure recited by VanArman, G. C., Nuss, G. W. and Risley, E. A., J. Pharmacol..Exper. Terap., 187:400-413, 1973. The following is a description of the test: • The hind-foot volumes of five Wistar male. rats (Taiwan strain) weighing 130-160 g each were measured by fluid displacement immediately prior to intraplantar administration (right hind paw) of 0.1 ml of an adjuvant suspension containing 5 milligrams (mg) Mycobacterium butyricum bacilli suspended in heavy mineral oil. Test compounds were orally administered to the animals for five days beginning the day before injection of the adjuvant. Four hours after the fifth daily drug dose the volume of the right hind paw (primary lesion) was measured for determination of any acute anti-inflammatory effect. Fourteen days after adjuvant inoculation the volume of the uninjected foot was measured (secondary lesion) for determination of prolonged anti-inflammatory effect or immunosuppressant effect. The percent reduction in foot volume was calculated for each hind paw in relation to corresponding control values determined simultaneously. A greater than 30 percent reduction in volume of either paw is considered a significant effect. Reduction of the primary lesion without effect on the secondary lesion denotes acute anti-inflammatory activity of short to moderate duration.

[1] = system: carrigeenan-induced swelling; test: Anti-edema test (carrageenin-induced hind paw edema); format: in vivo, male Wistar rats (Taiwan strain); conditions: one hour before carrigeenan, measured three hours after injection, rat
Description: as §1
Anti-edema effect was determined according to the test procedure recited by Winter, C.A., Risley, E. A., and Nuss, G. W., Proc. Exper. Biol. Med. 111:544-547, 1962. For this test, three male Wistar rats (Taiwan strain) weighing 100-120 g each are orally dosed with test compound dissolved or suspended in 3 ml of water. One hour later, the plantar surface of the right hind paw was injected with 0.1 ml of a 1 percent suspension of carrigeenan in saline and the left paw was similarly injected with saline only. Three hours after the injection the volume of both hind paw was measured by fluid displacement and the percent decrease in carrigeenan-induced swelling (volume of carrigeenan injected foot minus saline injected foot) was determined by comparison with untreated (no test compound) animals. Greater than 30 percent inhibition is considered evidence of an anti-edema effect.

Systolic blood pressure = test: Anti-hypertensive screening (systolic blood pressure by tail cuff); format: in vivo, normotensive Wistar rats (Taiwan strain); conditions: 100 mg/kg oral, rat
Description: This test was run according to the test procedure recited by Nagoaka, A., Kikuchi, K. and Aramaki, Y., Jap. J. Pharmacol., 19:401-408, 1969. For this test, two normotensive Wistar rats (Taiwan strain) were placed in perspex holders and then placed in a heated chamber at 40°C for 4-6 minutes before treatment. They were maintained there throughout each experiment. Systolic blood pressure was recorded by indirect means employing a tail cuff and pneumatic sensor device applied to the base of the animals' tails. The device was coupled to a programmed Narco-Biosystems sphygmomano meter (Model PE-300), an instrument for measuring blood pressure, and Sanei polygraph. After recording suitably steady blood pressure readings, test drugs were orally administered and blood pressure checked again 2, 4 and 6 hours after drug administration. A mean decrease of more than 10 percent from the pretreatment value at any two consecutive measurement intervals is considered evidence of hypotensive effect.

| Structure (SMILES) | Percent Reduction in Edema of the Primary Lesion (adjuvant arthritis; 100 mg/kg oral) | Percent Reduction in Edema of the Secondary Lesion (adjuvant arthritis; 100 mg/kg oral) | Reduction of Induced Edema ([1]; 100 mg/kg oral) | Percent Mean Decrease in Systolic Blood Pressure (Systolic blood pressure; 2 hours after administration) | Percent Mean Decrease in Systolic Blood Pressure (Systolic blood pressure; 4 hours after administration) | Percent Mean Decrease in Systolic Blood Pressure (Systolic blood pressure; 6 hours after administration) | other results |
| --- | --- | --- | --- | --- | --- | --- | --- |
| COc1ccc(NC(=S)N=CN(C)C)cc1 [Compound 1, 1-(p-methoxyphenylthiocarbamyl) 3,3-dimethyl formamidine hydrochloride] | – | – | – | – | – | – | Percent Reduction in Edema of the Primary Lesion (adjuvant arthritis; 5 mg/kg oral): 39%; Percent Reduction in Edema of the Secondary Lesion (adjuvant arthritis; 5 mg/kg oral): 35%; Reduction of Induced Edema ([1]; 5 mg/kg oral): 35% |
| CN(C)C=NC(=S)Nc1ccc(Cl)cc1 [Compound 2] | – | – | – | – | – | – | Reduction of Induced Edema ([1]; 25 mg/kg oral): 32% |
| CCc1cccc(CC)c1NC(=S)N=CN(C)C [Compound 3] | 39% | 31% | 33% | – | – | – | – |
| Cc1ccc(NC(=S)N=CN(C)C)c(C)c1 [Compound 4] | 0% | 0% | – | 4% | 17% | 15% | – |
| CCCCC1C(=O)N(c2ccccc2)N(c2ccccc2)C1=O [phenylbutazone, reference compound] | – | – | 41% | – | – | – | – |
| C[C@](N)(Cc1ccc(O)c(O)c1)C(=O)O [α-methyl 3,4-dihydroxy-phenylalanine, reference compound] | – | – | – | 11% | 21% | 19% | – |
